Assay type in all cases: biochemical, Human Coxsackievirus B3
The target in experiment [1] is T1, CVB3 3C^pro (Coxsackievirus B3, UniProt P03313). The experiment is described as follows: FRET-based enzyme assay of CVB3 3C^pro.
Experiment [2] deals with T1, CVB3 3C^pro. The experiment is described as follows: Enzyme kinetics study.
Experiment [3] has as its target T1, CVB3 3C^pro. The experiment is described as follows: Reversibility test by large and rapid dilution of enzyme-inhibitor complex. The following applies: 50-fold IC50 pre-incubated 30 min at 35 °C, then diluted 50-fold.

What is called IC50 is the point on the concentration scale where inhibition reaches its midpoint. Lower therefore signals inhibition by little substance. As usually defined, the inhibition is the change of the read-out against control, counted positive when it falls. What is called Ki is the dissociation constant of the complex between target and ligand, obtained from inhibition or displacement. A higher Ki goes with lower affinity.

T1 sequence (P03313 1541-1723): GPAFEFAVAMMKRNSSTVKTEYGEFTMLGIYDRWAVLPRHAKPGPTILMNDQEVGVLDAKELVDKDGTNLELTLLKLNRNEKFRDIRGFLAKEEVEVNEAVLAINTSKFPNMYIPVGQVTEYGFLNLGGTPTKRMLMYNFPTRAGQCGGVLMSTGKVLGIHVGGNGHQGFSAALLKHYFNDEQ

Regarding `NC(CO)C(=O)N/N=C\c1ccc(O)c(O)c1O` (centres unmarked) [8a, (Z)-2-amino-3-hydroxy-N'-(2,3,4-trihydroxybenzylidene)propanehydrazide], the midpoint of inhibition at CVB3 3C^pro [1], the IC50, lay at 2.72 µM. This counts as single-digit micromolar.

For the compound `NC(CO)C(=O)NNCc1ccc(O)c(O)c1` (centres unmarked) [9e, 2-amino-N'-(3,4-dihydroxybenzyl)-3-hydroxypropanehydrazide], the inhibition at 50 µM on CVB3 3C^pro [1] (read-out: % Inhibition 50 μM) was 56.2%. `NC(CO)C(=O)NNCc1ccc(O)c(O)c1O` (centres unmarked) [Benserazide, 2-amino-3-hydroxy-N'-(2,3,4-trihydroxybenzyl)propanehydrazide] gave a Ki at CVB3 3C^pro [2] of 4.7 µM. The “mechanism of the inhibition” value at CVB3 3C^pro [2] (inhibitor 0–10 μM, substrate 0–400 μM, V max reduced without a change in K m) was “non-competitive inhibitor”. Besides, on CVB3 3C^pro [3], the reversibility of inhibition result is “reversible pattern”.

For the origin of these results see publication PMC7094222 (Febs Letters, 2015).
